Experimental data published in patent US9546145B2, “Combination therapy for the treatment of chronic renal failure with an angiotensin II receptor antagonist and beraprost” (Toray Industries, Inc., priority 2003, dated 2017).
Counter-ions that a name gives are not always drawn.

Assays:
[1] = tested on: WKY rats with nephritis induced by rabbit anti-rat glomerular basement membrane antiserum (renal failure stage); assay: nephritis-induced renal failure model in rats, blood creatinine level; format: in vivo; details: for effect to suppress the progress of nephritis (raise in the blood creatinine level) / effect to suppress the progress of nephropathy (blood creatinine level): Example 1, FIG. 1; for effect to suppress the progress of nephritis (raise in the blood creatinine level): beraprost sodium 100 μg/kg BID and/or candesartan cilexetil 10 mg/kg OAD; for effect to suppress the progress of nephritis (raise in the blood creatinine level) / effect to suppress the progress of renal failure: compared with the control group; for effect to suppress the progress of nephropathy (blood creatinine level): increased dosage alone: beraprost sodium 300 μg/kg BID or candesartan cilexetil 30 mg/kg OAD, compared with BPS100+candesartan10 group; for blood creatinine level at 7 weeks after induction: started 2 weeks after antiserum
Procedure: After the start of the medication, blood was collected at one week intervals, and blood creatinine level was measured. To 9-week old WKY rats, rabbit anti-rat glomerular basement membrane antiserum was administered to induce nephritis. […] To 9-week old WKY rats, rabbit anti-rat glomerular basement membrane antiserum was administered to induce nephritis. […] At six weeks after the induction, blood creatinine level was measured to assess the progress of renal failure. […] To 9-week old WKY rats, rabbit anti-rat glomerular basement membrane antiserum was administered to induce nephritis. […] After the start of the medication, blood was collected at one week intervals, and blood creatinine level was measured. The data were plotted taking the reciprocal of the blood creatinine level measured for five weeks after the start of the medication along the ordinate and taking the time along the abscissa, and the slope of the regression line was defined as the rate of progress of renal failure of each animal. To 9-week old WKY rats, rabbit anti-rat glomerular basement membrane antiserum was administered to induce nephritis. […] After the start of the medication, blood was collected at one week intervals, and blood creatinine level was measured. The data were plotted taking the reciprocal of the blood creatinine level measured for five weeks after the start of the medication along the ordinate and taking the time along the abscissa, and the slope of the asymptote was defined as the rate of progress of renal failure of each animal. To 9-week old WKY rats, rabbit anti-rat glomerular basement membrane antiserum was administered to induce nephritis. […] After the start of the medication, blood was collected at one week intervals, and blood creatinine level was measured. The data were plotted taking the reciprocal of the blood creatinine level measured for six weeks after the start of the medication along the ordinate and taking the time along the abscissa, and the slope of the asymptote was defined as the rate of progress of renal failure of each animal.

[2] = tested on: WKY rats with nephritis induced by rabbit anti-rat glomerular basement membrane antiserum; assay: nephritis-induced renal failure model in rats, mortality / survival rate; format: in vivo; details: Example 7, FIG. 2; candesartan cilexetil 10 mg/kg OAD and/or beraprost sodium 100 μg/kg BID; compared with the control group
Procedure: To 9-week old WKY rats, rabbit anti-rat glomerular basement membrane antiserum was administered to induce nephritis. At two weeks after administering the antiserum, the animals were divided into the following 4 groups and medication was started. • 1) Control Group: 0.5% CMC(OAD)+distilled water (BID), n=11 • 2) Candesartan Group (Comparative Example): candesartan cilexetil 10 mg/kg (OAD)+distilled water (BID), n=11 • 3) BPS Group (Comparative Example): 0.5% CMC(OAD)+beraprost sodium 100 μg/kg (BID), n=11 • 4) Candesartan+BPS Group (this disclosure): candesartan cilexetil 10 mg/kg (OAD)+beraprost sodium 100 μg/kg (BID), n=12

[3] = tested on: glomerular nephritis model in rats; details: Kidney Int 1998, 53(5) 1314-20; cited from earlier work
[4] = tested on: patients suffering from diabetic nephropathy; details: Nephron 2002, 92(4): 788-96; cited from earlier work
[5] = tested on: patients suffering from diabetic nephropathy; details: N Engl J Med 2001, 345(12): 861-9; cited from earlier work
[6] = tested on: diabetic nephritis induced by streptozotocin in rats; details: J Hypertens Suppl 1993; 11 Suppl 5: S208-9; cited from earlier work
[7] = tested on: renal dysfunction induced by uninephrectomy and by loading high sodium and high protein; details: Am J Hypertens 1997 10: 209-16; cited from earlier work
[8] = tested on: diabetes mellitus model in rats; details: each drug individually or in combination, versus control group; Am J Hypertens 1997 10: 202-208; cited from earlier work
[9] = tested on: anti-Thyl-induced nephritis model; details: Am J Pathol 1993; 142(2): 441-50; cited from earlier work
[10] = tested on: diabetic nephropathy; details: compared with blood pressure control by a calcium antagonist; N Engl J Med 2001; 345(12): 851-60; cited from earlier work
[11] = Example 2, during medication, telmisartan 40 mg/kg OAD and/or beraprost sodium 100 μg/kg BID
[12] = Example 2, telmisartan 40 mg/kg OAD and/or beraprost sodium 100 μg/kg BID, mean ± S.E.
[13] = Example 3, losartan 30 mg/kg BID and/or beraprost sodium 100 μg/kg BID
[14] = Example 3, losartan 30 mg/kg BID and/or beraprost sodium 100 μg/kg BID, mean ± S.E.
[15] = Example 4, enalapril maleate 10 mg/kg OAD and/or beraprost sodium 100 μg/kg BID
[16] = Example 4, enalapril maleate 10 mg/kg OAD and/or beraprost sodium 100 μg/kg BID, mean ± S.E.
[17] = Example 4, slope of regression line of reciprocal blood creatinine over five weeks of medication, enalapril maleate 10 mg/kg OAD and/or beraprost sodium 100 μg/kg BID, mean ± S.E.
[18] = Example 5, lisinopril 10 mg/kg OAD and/or beraprost sodium 100 μg/kg BID
[19] = Example 5, lisinopril 10 mg/kg OAD and/or beraprost sodium 100 μg/kg BID, mean ± S.E.
[20] = Example 5, slope of reciprocal blood creatinine over five weeks of medication, lisinopril 10 mg/kg OAD and/or beraprost sodium 100 μg/kg BID, mean ± S.E.
[21] = Example 6, perindopril erbumine 10 mg/kg OAD and/or beraprost sodium 100 μg/kg BID
[22] = Example 6, slope of reciprocal blood creatinine over six weeks of medication, perindopril erbumine 10 mg/kg OAD and/or beraprost sodium 100 μg/kg BID

CC#CCC(C)[C@H](O)/C=C/[C@@H]1[C@H]2c3cccc(CCCC(=O)[O-])c3O[C@H]2C[C@H]1O.[Na+] (stereo partly drawn) [BPS, beraprost sodium]
effect to suppress the progress of nephritis (raise in the blood creatinine level) [1]: almost no difference | effect to suppress the progress of nephropathy (blood creatinine level) [1]: smaller than that observed in BPS100+candesartan10 group | effect to suppress the progress of renal failure [1, 11]: almost no difference | blood creatinine level at 7 weeks after induction [1, 12]: 1.56 ± 0.76 mg/dL | effect to suppress the progress of renal failure [1, 13]: no difference | blood creatinine level at 6 weeks after induction [1, 14]: 0.93 ± 0.18 mg/dL | effect to suppress the progress of renal failure [1, 15]: no difference | blood creatinine level at 6 weeks after induction [1, 16]: 0.93 ± 0.18 mg/dL | rate of progress of renal failure [1, 17]: 0.32 ± 0.04 dL/mg × week | effect to suppress the progress of renal failure [1, 18]: almost no difference | blood creatinine level at 6 weeks after induction [1, 19]: 1.49 ± 0.59 mg/dL | rate of progress of renal failure [1, 20]: 0.37 ± 0.07 dL/mg × week | blood creatinine level at 6 weeks after induction [1, 21]: 0.93 ± 0.18 mg/dL | effect to suppress the progress of renal failure [1, 21]: tendency to suppress the progress of renal failure | rate of progress of renal failure [1, 22]: 0.29 ± 0.03 dL/mg × week | mortality rate / survival rate [2]: no difference | urinary protein [3]: decreases urinary protein | urinary protein [4]: decreases urinary protein

CCOC(=O)[C@H](CCc1ccccc1)N[C@@H](C)C(=O)N1CCC[C@H]1C(=O)O [Enalapril, enalapril maleate]
effect to suppress the progress of renal failure [1, 15]: no difference | blood creatinine level at 6 weeks after induction [1, 16]: 1.83 ± 0.44 mg/dL | rate of progress of renal failure [1, 17]: 0.41 ± 0.04 dL/mg × week

NCCCC[C@H](N[C@@H](CCc1ccccc1)C(=O)O)C(=O)N1CCC[C@H]1C(=O)O [Lisinopril, lisinopril]
effect to suppress the progress of renal failure [1, 18]: almost no difference | blood creatinine level at 6 weeks after induction [1, 19]: 1.20 ± 0.34 mg/dL | rate of progress of renal failure [1, 20]: 0.39 ± 0.08 dL/mg × week

CCCCc1nc(Cl)c(CO)n1Cc1ccc(-c2ccccc2-c2nn[nH]n2)cc1 [Losartan, losartan]
effect to suppress the progress of renal failure [1, 13]: no difference | blood creatinine level at 6 weeks after induction [1, 14]: 1.94 ± 0.61 mg/dL | risk-lowering rate (doubling time of creatinine, dialysis, complicated risk of death) [5]: 16.1%

CCC[C@H](N[C@@H](C)C(=O)N1[C@H](C(=O)O)C[C@@H]2CCCC[C@@H]21)C(=O)OCC [Perindopril, perindopril erbumine]
blood creatinine level at 6 weeks after induction [1, 21]: 1.09 ± 0.42 mg/dL | effect to suppress the progress of renal failure [1, 21]: tendency to suppress the progress of renal failure | rate of progress of renal failure [1, 22]: 0.30 ± 0.05 dL/mg × week

CCCc1nc2c(C)cc(-c3nc4ccccc4n3C)cc2n1Cc1ccc(-c2ccccc2C(=O)O)cc1 [Telmisartan, telmisartan]
effect to suppress the progress of renal failure [1, 11]: suppressed | blood creatinine level at 7 weeks after induction [1, 12]: 0.93 ± 0.43 mg/dL | blood creatinine level at 8 weeks after induction (1 week after the end of the medication) [1, 12]: 1.18 ± 0.80 mg/dL | progress of renal failure / blood creatinine level at one week after the end of the medication ([1]; Example 2, telmisartan 40 mg/kg OAD with or without beraprost sodium 100 μg/kg BID): renal failure was progressed

CCOc1nc2cccc(C(=O)OC(C)OC(=O)OC3CCCCC3)c2n1Cc1ccc(-c2ccccc2-c2nn[nH]n2)cc1 (stereo not drawn) [candesartan, candesartan cilexetil]
effect to suppress the progress of nephritis (raise in the blood creatinine level) [1]: almost no difference | effect to suppress the progress of nephropathy (blood creatinine level) [1]: smaller than that observed in BPS100+candesartan10 group | mortality rate / survival rate [2]: no difference

CCC#CC[C@H](C)[C@H](O)C#C[C@@H]1[C@H]2C/C(=C/COCC(=O)O)C[C@H]2C[C@H]1O [cicaprost]
suppression of diabetic nephritis [6]: suppressed | suppression of renal dysfunction [7]: suppressed | renal function parameters such as urinary protein, damage of renal tissue [8]: less severe

CC#CCC(C)[C@H](O)/C=C/[C@@H]1[C@H]2C/C(=C/CCCC(=O)O)C[C@H]2C[C@H]1O (stereo partly drawn) [iloprost]
urinary protein [9]: decreased urinary protein

CCCCC1=NC2(CCCC2)C(=O)N1Cc1ccc(-c2ccccc2-c2nnn[nH]2)cc1 [irbesartan]
effect of suppressing the progress of diabetic nephropathy [10]: superior
